Measured values: ChEMBL document CHEMBL1909046, “DrugMatrix in vitro pharmacology data”
pIC50, pKi: −log10 of the molar value.

How the values were obtained:
[1] = molecular target: T1, Muscarinic acetylcholine receptor M4 (Homo sapiens, UniProt P08173); type: cell membranes, CHO-K1, Membrane; conditions: cho-k1; further: in other assays of this panel Not Active means under 50% inhibition at 10 µM
T1 sequence (P08173 whole entry): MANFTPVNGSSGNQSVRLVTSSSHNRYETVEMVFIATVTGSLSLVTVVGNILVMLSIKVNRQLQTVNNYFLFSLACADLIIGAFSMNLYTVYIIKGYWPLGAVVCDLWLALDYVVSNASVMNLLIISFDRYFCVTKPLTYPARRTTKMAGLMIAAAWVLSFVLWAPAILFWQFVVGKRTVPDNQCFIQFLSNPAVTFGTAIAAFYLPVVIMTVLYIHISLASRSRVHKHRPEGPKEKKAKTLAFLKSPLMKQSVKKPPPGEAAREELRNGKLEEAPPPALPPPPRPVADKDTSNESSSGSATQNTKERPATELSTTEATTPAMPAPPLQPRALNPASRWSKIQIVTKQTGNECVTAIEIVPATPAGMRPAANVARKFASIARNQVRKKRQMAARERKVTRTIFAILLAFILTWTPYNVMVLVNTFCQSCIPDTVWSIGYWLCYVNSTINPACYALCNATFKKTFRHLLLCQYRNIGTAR

[2] = molecular target: Protein phosphatase 3 catalytic subunit alpha (Homo sapiens, UniProt Q08209); set-up: species or system Escherichia coli;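 further: inhibition of calcineurin (PP2B) enzyme activity, measured with DiFMUP as the substrate; in other assays of this panel Not Active means under 50% inhibition at 10 µM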
[3] = molecular target: T2, 3-hydroxy-3-methylglutaryl-coenzyme A reductase (Homo sapiens, UniProt P04035); set-up: species or system Escherichia coli;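 further: enzyme inhibition assay of HMG-CoA reductase using radiolabeled [14C]HMG-CoA as substrate; in other assays of this panel Not Active means under 50% inhibition at 10 µM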
T2 sequence (P04035 whole entry): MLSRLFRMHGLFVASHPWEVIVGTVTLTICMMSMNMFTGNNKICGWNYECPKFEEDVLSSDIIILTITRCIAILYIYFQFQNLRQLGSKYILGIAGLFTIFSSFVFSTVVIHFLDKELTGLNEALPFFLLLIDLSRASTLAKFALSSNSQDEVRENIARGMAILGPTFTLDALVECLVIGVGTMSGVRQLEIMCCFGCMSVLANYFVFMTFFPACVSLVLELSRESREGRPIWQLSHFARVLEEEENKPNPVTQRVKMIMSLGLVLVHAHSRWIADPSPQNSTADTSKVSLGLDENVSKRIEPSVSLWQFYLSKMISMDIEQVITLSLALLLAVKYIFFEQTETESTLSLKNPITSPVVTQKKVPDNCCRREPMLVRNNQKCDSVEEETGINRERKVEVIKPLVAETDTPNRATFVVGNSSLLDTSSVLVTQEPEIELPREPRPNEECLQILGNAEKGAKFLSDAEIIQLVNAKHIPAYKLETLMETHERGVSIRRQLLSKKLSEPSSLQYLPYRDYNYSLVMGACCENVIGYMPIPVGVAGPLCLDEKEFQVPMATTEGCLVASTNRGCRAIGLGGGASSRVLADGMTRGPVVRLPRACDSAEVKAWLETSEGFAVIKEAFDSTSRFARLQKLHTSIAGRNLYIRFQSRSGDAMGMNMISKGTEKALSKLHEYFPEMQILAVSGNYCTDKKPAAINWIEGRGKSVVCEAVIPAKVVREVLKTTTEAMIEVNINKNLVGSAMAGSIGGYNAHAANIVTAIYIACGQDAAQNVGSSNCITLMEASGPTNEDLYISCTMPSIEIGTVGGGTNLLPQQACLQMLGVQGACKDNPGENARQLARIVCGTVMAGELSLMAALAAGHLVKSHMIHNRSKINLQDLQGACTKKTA

[4] = molecular target: T3, Amine oxidase [flavin-containing] A (Homo sapiens, UniProt P21397); assay: DRUGMATRIX: Monoamine Oxidase MAO-A enzyme inhibition (substrate: Kynuramine); set-up: species or system BTI-TN-5B1-4; conditions: bti-tn-5b1-4; Not Active = under 50% inhibition at 10 µM
T3 sequence (P21397 whole entry): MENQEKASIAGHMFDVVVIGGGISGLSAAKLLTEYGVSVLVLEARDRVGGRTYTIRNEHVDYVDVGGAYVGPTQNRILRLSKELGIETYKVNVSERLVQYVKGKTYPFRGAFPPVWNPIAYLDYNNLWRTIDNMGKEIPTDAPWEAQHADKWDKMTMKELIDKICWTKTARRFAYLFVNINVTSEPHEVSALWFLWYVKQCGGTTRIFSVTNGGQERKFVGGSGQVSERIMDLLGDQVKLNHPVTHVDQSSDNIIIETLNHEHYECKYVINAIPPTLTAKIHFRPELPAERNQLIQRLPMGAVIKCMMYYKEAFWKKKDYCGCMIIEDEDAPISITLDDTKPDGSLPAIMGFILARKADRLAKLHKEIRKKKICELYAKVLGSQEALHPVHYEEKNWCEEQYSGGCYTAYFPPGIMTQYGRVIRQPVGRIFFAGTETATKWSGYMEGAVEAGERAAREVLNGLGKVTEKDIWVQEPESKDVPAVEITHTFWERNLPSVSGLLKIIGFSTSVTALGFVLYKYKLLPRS

[5] = molecular target: Adenosine receptor A2a (Homo sapiens, UniProt P29274); assay: DRUGMATRIX: Adenosine A2A radioligand binding (ligand: […]); type: cell membranes, HEK293, Membrane; conditions: Not Active = under 50% inhibition at 10 µM; for IC50: hek293
[6] = molecular target: Cytochrome P450 2C19 (Homo sapiens, UniProt P33261); conditions: bti-tn-5b1-4; further: in other assays of this panel Not Active means under 50% inhibition at 10 µM
Cytochrome P450 2C19, sequence (P33261 whole entry): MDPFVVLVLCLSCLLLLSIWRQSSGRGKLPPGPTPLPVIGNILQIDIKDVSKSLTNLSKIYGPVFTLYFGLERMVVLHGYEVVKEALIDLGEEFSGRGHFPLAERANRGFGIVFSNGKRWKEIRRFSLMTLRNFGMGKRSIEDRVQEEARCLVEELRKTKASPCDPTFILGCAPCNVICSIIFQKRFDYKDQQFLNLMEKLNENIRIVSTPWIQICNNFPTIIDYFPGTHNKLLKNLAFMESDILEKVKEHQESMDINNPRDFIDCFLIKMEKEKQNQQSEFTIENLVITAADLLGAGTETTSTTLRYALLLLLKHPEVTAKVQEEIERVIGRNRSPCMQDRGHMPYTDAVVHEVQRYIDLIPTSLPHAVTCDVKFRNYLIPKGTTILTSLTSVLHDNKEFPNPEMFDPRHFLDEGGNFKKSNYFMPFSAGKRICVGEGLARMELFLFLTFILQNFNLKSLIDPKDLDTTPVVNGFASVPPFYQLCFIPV

Adenosine receptor A2a, sequence (P29274 whole entry): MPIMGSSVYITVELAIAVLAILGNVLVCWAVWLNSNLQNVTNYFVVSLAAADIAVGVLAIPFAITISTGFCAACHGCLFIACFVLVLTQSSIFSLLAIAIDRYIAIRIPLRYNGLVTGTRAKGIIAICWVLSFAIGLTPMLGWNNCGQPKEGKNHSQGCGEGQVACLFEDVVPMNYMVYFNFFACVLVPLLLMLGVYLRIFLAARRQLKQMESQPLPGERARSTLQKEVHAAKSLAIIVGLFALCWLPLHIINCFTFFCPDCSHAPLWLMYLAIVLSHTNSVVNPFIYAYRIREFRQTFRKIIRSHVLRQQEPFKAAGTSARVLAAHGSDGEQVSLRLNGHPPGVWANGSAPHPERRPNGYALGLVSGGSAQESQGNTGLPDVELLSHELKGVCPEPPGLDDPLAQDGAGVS

SMILES | IC50 [1] | IC50 [2] | IC50 [3] | IC50 [4] | IC50 [5] | IC50 [6] | Ki [6] | pIC50 ([5]; read-out: IC50) | pKi ([5]; read-out: Ki)
O=C(c1ccccc1C(F)(F)F)N1CCC(Cc2ccccc2)CC1 | Not Active | Not Active | Not Active | Not Active | Not Active |  |  |  | 
O=C/C=C/c1ccccc1 | Not Active | Not Active | Not Active | Not Active | Not Active | Not Active | Not Active |  | 
Nc1ccc2c3c(cccc13)C(=O)NC2=O | Not Active | Not Active | Not Active | Not Active | Not Active | Not Active | Not Active |  | 
COc1ccc(C(=O)N2CCCC2=O)cc1 | Not Active | Not Active | Not Active | Not Active | Not Active |  |  |  | 
O=c1cnn([C@@H]2O[C@H](CO)[C@@H](O)[C@H]2O)c(=O)[nH]1 [6-AZAURIDINE] | Not Active | Not Active | Not Active | Not Active | Not Active | Not Active | Not Active |  | 
NCCCC(O)(P(=O)(O)O)P(=O)(O)O [ALENDRONIC ACID] | Not Active | Not Active | Not Active | Not Active | Not Active |  |  |  | 
Cn1c(=O)c2[nH]cnc2n(C)c1=O.Cn1c(=O)c2[nH]cnc2n(C)c1=O.NCCN [AMINOPHYLLINE] | Not Active | Not Active | Not Active | Not Active |  | Not Active | Not Active |  | 
CN1[C@@H]2CC[C@H]1C[C@@H](OC(=O)C(CO)c1ccccc1)C2 (stereo partly drawn) [ATROPINE] |  | Not Active | Not Active | Not Active | Not Active |  |  |  | 
Nc1ccn([C@@H]2O[C@H](CO)[C@@H](O)[C@@H]2O)c(=O)n1 [CYTARABINE] | Not Active | Not Active | Not Active | Not Active | Not Active |  |  |  | 
C[C@@H]1C[C@H]2[C@@H]3CCC4=CC(=O)C=C[C@]4(C)[C@@]3(F)[C@@H](O)C[C@]2(C)[C@@]1(O)C(=O)CO [DEXAMETHASONE] | Not Active | Not Active | Not Active | Not Active | Not Active |  |  |  | 
CC[C@H]1CN2CCc3cc(OC)c(OC)cc3[C@@H]2C[C@@H]1C[C@H]1NCCc2cc(OC)c(OC)cc21 [EMETINE] | Not Active | Not Active | Not Active | Not Active | Not Active |  |  |  | 
C#C[C@]1(OC(C)=O)CC[C@H]2[C@@H]3CCC4=C[C@@H](OC(C)=O)CC[C@@H]4[C@H]3CC[C@@]21C [ETHYNODIOL DIACETATE] | Not Active | Not Active | Not Active |  | Not Active | Not Active | Not Active |  | 
COc1cc([C@@H]2c3cc4c(cc3[C@@H](O[C@@H]3O[C@@H]5CO[C@@H](C)O[C@H]5[C@H](O)[C@H]3O)[C@H]3COC(=O)[C@H]23)OCO4)cc(OC)c1O [ETOPOSIDE] | Not Active | Not Active | Not Active | Not Active | Not Active |  |  |  | 
CC(C)(C)NC(=O)[C@H]1CC[C@H]2[C@@H]3CC[C@H]4NC(=O)C=C[C@]4(C)[C@H]3CC[C@]12C [FINASTERIDE] | Not Active | Not Active | Not Active | Not Active | Not Active |  |  |  | 
COc1ccc2c3c1O[C@H]1C[C@@H](O)C=C[C@@]31CCN(C)C2 [GALANTAMINE] | Not Active | Not Active | Not Active | Not Active | Not Active |  |  |  | 
CC(C)=CCC/C(C)=C/CO [GERANIOL] | Not Active | Not Active | Not Active | Not Active | Not Active |  |  |  | 
Oc1c(Cl)cc(Cl)c(Cl)c1Cc1c(O)c(Cl)cc(Cl)c1Cl [HEXACHLOROPHENE] | Not Active | Not Active | Not Active | Not Active |  |  |  | 5.79 | 6.04
CC(=O)[C@@]1(O)CC[C@H]2[C@@H]3CCC4=CC(=O)CC[C@]4(C)[C@H]3CC[C@@]21C [HYDROXYPROGESTERONE] | Not Active | Not Active | Not Active | Not Active | Not Active |  |  |  | 
COC1=C(OC)C(=O)C(CCCCCCCCCCO)=C(C)C1=O [IDEBENONE] | Not Active | Not Active | Not Active | Not Active | Not Active |  |  |  | 
Cc1c(OCC(F)(F)F)ccnc1C[S+]([O-])c1nc2ccccc2[nH]1 (stereo not drawn) [LANSOPRAZOLE] | Not Active | Not Active | Not Active | Not Active | Not Active |  |  |  | 
COc1ccc2[nH]cc(CCNC(C)=O)c2c1 [MELATONIN] | Not Active | Not Active | Not Active | Not Active | Not Active |  |  |  | 
O=C(N/N=C/c1ccc([N+](=O)[O-])o1)c1cc([N+](=O)[O-])cc([N+](=O)[O-])c1O [NIFURSOL] | Not Active | Not Active | Not Active | Not Active | Not Active |  |  |  | 
CC(=O)O[C@H]1C(=O)[C@@]2(C)[C@H]([C@H](OC(=O)c3ccccc3)[C@]3(O)C[C@H](OC(=O)[C@H](O)[C@@H](NC(=O)c4ccccc4)c4ccccc4)C(C)=C1C3(C)C)[C@]1(OC(C)=O)CO[C@@H]1C[C@@H]2O [PACLITAXEL] | Not Active | Not Active | Not Active | Not Active | Not Active |  |  |  | 
CC(C)NCC(O)COc1cccc2[nH]ccc12 (stereo not drawn) [PINDOLOL] | Not Active | Not Active | Not Active | Not Active | Not Active |  |  |  | 
CCCNCC(O)COc1ccccc1C(=O)CCc1ccccc1 (stereo not drawn) [PROPAFENONE] | Not Active | Not Active | Not Active | Not Active | Not Active |  |  |  | 
CC(C)c1cccc(C(C)C)c1O [PROPOFOL] | Not Active | Not Active | Not Active | Not Active | Not Active |  |  |  | 
